Measurements from US20240317727A1 (Duke University, priority 2018, published 2024).
pIC50: −log10 of the molar value.

Assays:
[1] = biological target: T1, purified recombinant human HSF1 (HSF1 DNA binding domain) (Homo sapiens, UniProt Q00613); assay: Melting temperature of HSF1 DBD with HSF1 degrader compounds (Sypro orange); details: 12.5 micromolar compound, 5 micromolar HSF1 DBD, compared to DMSO; read-out: ΔTm (° C.)
T1 sequence (Q00613 15-120): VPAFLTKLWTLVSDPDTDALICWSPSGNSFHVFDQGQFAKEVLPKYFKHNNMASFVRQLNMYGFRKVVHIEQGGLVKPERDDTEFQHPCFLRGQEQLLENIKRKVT
Experimental: The melting temperature (ΔTm) for purified recombinant human HSF1 (HSF1 DNA binding domain) was determined in the presence of HSF1 degrader compounds shown in Table 5 and compared to the solvent DMSO. Sypro orange dye was added to the HSF1 DBD (5 micromolar final concentration) in buffer, mixed and distributed to wells in 384 well microtiter plates. HSF1 degrader compound (12.5 micromolar) or DMSO solvent was added to three replicate wells per compound concentration, mixed and plates loaded into a Quant Studio thermnocycler and run on a temperature gradient from 25° C. to 85° C. with increments of 0.5° C. steps. Melting curves were obtained and analyzed using the ThermnoFisher Shift Software 1.4 fitted with a Boltzmann equation to determine the change in melting temperature of the protein in the presence of DMSO as compared to compound. The difference in the melting temperature under these two conditions was assigned as the change in melting temperature of ΔTm.

[2] = tested on: C4-2 prostate cancer cells; assay: C4-2 cell proliferation, Cell Titre Glo; format: cell-based; details: Homo sapiens, 48-hour period, 9-point dilution series, read-out: Cell Viability IC50
Experimental: Next, cell viability of C4-2 prostate cancer cells was determined. C4-2 prostate cancer cells were grown in RMPI-1640 (no L-glutamine, Gibco 21870076) supplemented with 10% fetal bovine […] (non-heat-inactivated, Cytiva Hyclone SH30071.03). […] A 9-point dilution series was used to assess the ability of each compound to inhibit the growth of C4-2 prostate cancer cells over a 48-hour period, as compared to negative control solvent, DMSO. Cell proliferation was measured by the Cell Titre Glo assay using 384 well microtiter plate reader to quantitate luminescence. The IC50 was determined from the values obtained.

DNAJB1 equals Hsp40 = assay: HSF1 target gene transcript expression qPCR in C4-2 cells, Hsp40; format: cell-based; details: Homo sapiens, 2 hours then SNX-2112 (100 nM) 5 hr, vs GAPDH and DMSO
Experimental: (§1) Next, the change in heat shock protein gene expression in C4-2 prostate cancer cells was determined. C4-2 prostate cancer cells were grown in RMPI-1640 (no L-glutamine, Gibco 21870076) supplemented with 10% fetal bovine […] (non-heat-inactivated, Cytiva Hyclone SH30071.03). To quantitatively measure the inhibition of HSF1 activity in C4-2 prostate cancer cells, compounds or DMSO were added to triplicate C4-2 cell cultures for 2 hours. HSF1 activity was then stimulated with the Hsp90 inhibitor SNX-2112 (100 nM) for an additional 5 hr at 37° C. in the presence of HSF1 degrader compounds or DMSO. Total RNA was extracted, converted to cDNA and used in qPCR assays to quantify the change in HSF1 target gene transcript expression (HSPA4L equals Hsp70, HSPB1 equals Hsp27 and DNAJB1 equals Hsp40) as compared to GAPDH internal control gene, and then compared to DMSO negative control.

Hsp70 = assay: HSF1 target gene transcript expression qPCR in C4-2 cells, Hsp70; format: cell-based; details: Homo sapiens, 2 hours then SNX-2112 (100 nM) 5 hr, vs GAPDH and DMSO
Experimental: as §1

[3] = Rat liver microsome stability; format: in vitro ADME; details: rat liver microsomes, 37° C., read-out: Microsome Stability T1/2
Experimental: Next, the microsome stability in rats was determined for select compounds from Table 5. Test compounds are incubated with rat liver microsomes supplemented with co-factors at 37° C. Typical conditions were a compound concentration of 1 μM and 5 sampling time-points (0, 5, 15, 30 and 45 minutes), in duplicate. At each time-point, the reactions were terminated by the addition of organic solvent. The samples were centrifuged and the parent compound concentration was evaluated by LC-MS/MS measurements. Control compounds were included with well-established stability when incubated with rat microsomes. Multiple time points were used to determine % parent compound remaining at each time point and to calculate the Tiu2 for each compound in rat liver microsomes. A higher T1/2 indicates increased compound stability in microsomes.

[4] = biological target: T2, recombinant HSF1 DNA-binding domain (DBD) (Homo sapiens, UniProt Q00613); assay: Differential Scanning Fluorimetry (DSF), HSF1 DBD melting temperature; details: for ΔTm at 25 µM: Table 1, 5 μM HSF1 DBD, 25PM Compound, positive = stabilizes, negative = destabilizes HSF1; for effect on melting temperature of HSF1: thermal denaturation profiling, FIG. 2
T2 sequence (Q00613 15-120): T1 sequence (Q00613 15-120)

[5] = tested on: C4-2 malignant prostate cancer cells vs BPH-1 non-tumorigenic prostate cells; assay: AlamarBlue cell viability, C4-2 vs BPH-1; format: cell-based, human; details: FIG. 6A; for viability of C4-2 compared to BPH-1: 96 hours, AlamarBlue assay; for potency compared to Compound 0017: inhibition of metastatic prostate cancer cell growth
Experimental: The cells were treated for 96 hours with the indicated concentrations of the compounds of the disclosure and cell viability was measured with the AlamarBlue assay. FIG. 6B illustrates the results of Compound 0017 used in a 7-week Maximal Tolerated Dose (MTD) study conducted in mice (3 mice identified as 118, 119 and 120). […] After sacrificing the mice on the last day of the administration, mouse liver and heart tissue was isolated, messenger RNA extracted and the transcript abundance of the HSF1 target gene, Hsp70, was evaluated by qRT-PCR relative to the internal RNA control, GAPDH. The results of the vehicle-treated versus Compound 0017-treated experiments were compared.
Based on the chemical structure of Compound 0017 and its activity, and of other HSF1-interacting chemicals identified in the screen, additional derivatives were designed, synthesized and evaluated for binding to HSF1 and preferential inhibition of metastatic prostate cancer cells (C4-2) versus benign prostate cells (BPH-1).

[6] = biological target: recombinant protein Hsc70 (Homo sapiens, UniProt P11142); assay: Thermal denaturation of Hsc70 (selectivity); details: selectivity in binding, FIG. 2
[7] = tested on: heat shock induced chaperone (Hsp25 and Hsp70) expression; assay: Heat shock induced chaperone expression in MEFs, immunoblotting; format: cell-based, mouse; details: heat shock 42° C. 30 mins, 6-hour recovery, FIG. 3
Experimental: The MEFs were then subjected to heat shock stress at 42° C. for 30 mins to activate HSF1. After heat shock, the MEFs were incubated at 37° C. for a 6-hour recovery. The whole cell lysates were collected at the end of the experiment, and proteins of interest, including Hsp25, Hsp70, HSF1 and GAPDH (as loading control) were assessed by immunoblotting with the corresponding antibody.

recombinant protein Hsc70, sequence (P11142 whole entry, species assumed): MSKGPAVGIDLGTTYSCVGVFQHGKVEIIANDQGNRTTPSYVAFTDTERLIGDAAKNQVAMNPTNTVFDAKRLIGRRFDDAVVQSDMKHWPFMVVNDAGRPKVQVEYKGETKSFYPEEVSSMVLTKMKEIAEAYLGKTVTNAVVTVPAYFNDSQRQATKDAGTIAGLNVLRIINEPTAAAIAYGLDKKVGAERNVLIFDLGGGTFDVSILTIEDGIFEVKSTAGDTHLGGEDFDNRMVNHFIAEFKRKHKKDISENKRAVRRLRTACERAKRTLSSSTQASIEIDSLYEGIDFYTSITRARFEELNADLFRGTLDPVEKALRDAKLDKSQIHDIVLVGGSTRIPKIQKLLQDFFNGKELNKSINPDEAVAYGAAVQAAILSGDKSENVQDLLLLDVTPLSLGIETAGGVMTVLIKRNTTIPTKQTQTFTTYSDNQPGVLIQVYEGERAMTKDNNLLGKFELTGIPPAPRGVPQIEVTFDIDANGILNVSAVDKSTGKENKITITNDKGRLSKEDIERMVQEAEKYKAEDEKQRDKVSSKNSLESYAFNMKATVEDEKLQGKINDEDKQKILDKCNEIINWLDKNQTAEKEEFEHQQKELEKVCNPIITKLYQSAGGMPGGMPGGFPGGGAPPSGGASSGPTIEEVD

## N#Cc1ccc(NC(=O)Nc2ccc(Cl)c(S(=O)(=O)C(F)(F)F)c2)cc1C(F)(F)F [Compound 257, 1-(4-chloro-3-((trifluoromethyl)sulfonyl)phenyl)-3-(4-cyano-3-(trifluoromethyl)phenyl)urea]
[1]
  ΔTm at 12.5 µM: 1.62 °C
[2]
  pIC50: 5.67
DNAJB1 equals Hsp40
  mrna remaining at 10 µM: 7%
Hsp70
  mrna remaining at 10 µM: 20%
[3]
  half-life at 1 μM: 6.16 h

## N#Cc1ccc(NC(=O)Nc2ccc(Cl)c(C(F)(F)F)c2)cc1 [Compound 242, 1-(4-chloro-3-(trifluoromethyl)phenyl)-3-(4-cyanophenyl)urea]
[1]
  ΔTm at 12.5 µM: 2.62 °C
[2]
  pIC50: 5.70
DNAJB1 equals Hsp40
  mrna remaining at 10 µM: 71%
Hsp70
  mrna remaining at 10 µM: 55%
[3]
  half-life at 1 μM: 14.9 h

## O=C(Nc1ccc(F)cc1)Nc1ccc(Cl)c(S(=O)(=O)C(F)(F)F)c1 [Compound 0054, 1-[4-chloro-3-(trifluoromethylsulfonyl)phenyl]-3-(4-fluorophenyl)urea]
[4]
  ΔTm at 25 µM: 2.9 °C
[5]
  viability of C4-2 compared to BPH-1: preferentially inhibit the viability
  potency compared to Compound 0017: increased potency compared to Compound 0017

## O=C(Nc1ccc(F)cc1)Nc1ccc(Cl)c([N+](=O)[O-])c1 [Compound 17, 1-(4-chloro-3-nitrophenyl)-3-(4-fluorophenyl)urea]
[1]
  ΔTm at 12.5 µM: 3.69 °C
[2]
  pIC50: 5.25
DNAJB1 equals Hsp40
  mrna remaining at 10 µM: 23.6%
Hsp70
  mrna remaining at 10 µM: 30.4%
[3]
  half-life at 1 μM: 1.54 h

## N#Cc1ccc(NC(=O)Nc2ccc(Cl)c(C(F)(F)F)c2)cc1C(F)(F)F [Compound 258, 1-(4-chloro-3-(trifluoromethyl)phenyl)-3-(4-cyano-3-(trifluoromethyl)phenyl)urea]
[1]
  ΔTm at 12.5 µM: 2.26 °C
[2]
  pIC50: 5.78
DNAJB1 equals Hsp40
  mrna remaining at 10 µM: 65%
Hsp70
  mrna remaining at 10 µM: 60%
[3]
  half-life at 1 μM: 10.6 h

## COc1cccc(-c2cnc(Nc3ccc(F)cc3)s2)c1 [Compound 0050]
[4]
  ΔTm at 25 µM: 2.93 °C
  effect on melting temperature of HSF1: stabilized the melting temperature of HSF1
[6]
  effect on melting of unrelated protein Hsc70: did not affect the melting

## O=C(Nc1ccccc1)Nc1ccccc1 [1,3-diphenylurea, reference compound]
[4]; thermal denaturation assay
  binding to HSF1: fails to bind HSF1
[7]
  heat shock induced chaperone (Hsp25 and Hsp70) expression: showed no impact on HSF1 activity

## N#Cc1ccc(NC(=O)Nc2ccc(Cl)c(S(=O)(=O)C(F)(F)F)c2)cc1 [Compound 243, 1-(4-chloro-3-((trifluoromethyl)sulfonyl)phenyl)-3-(4-cyanophenyl)urea]
[1]
  ΔTm at 12.5 µM: 1.77 °C
[2]
  pIC50: 5.76
DNAJB1 equals Hsp40
  mrna remaining at 10 µM: 39.5%
Hsp70
  mrna remaining at 10 µM: 38.5%
[3]
  half-life at 1 μM: 2.56 h

## O=c1c(Nc2ccc(F)cc2)c(Nc2ccc(Cl)c(C(F)(F)F)c2)c1=O [Compound 0064, 3-[4-chloro-3-(trifluoromethyl)anilino]-4-(4-fluoroanilino)cyclobut-3-ene-1,2-dione]
[4]
  ΔTm at 25 µM: 2.3 °C
[5]
  viability of C4-2 compared to BPH-1: preferentially inhibit the viability
  potency compared to Compound 0017: increased potency compared to Compound 0017

## O=C(Nc1ccc(F)cc1)Nc1ccc(Br)c(C(F)(F)F)c1 [Compound 0005, 1-(4-bromo-3-(trifluoromethyl)phenyl)-3-(4-fluorophenyl)urea]
[4]
  ΔTm at 25 µM: 5.1 °C
  effect on melting temperature of HSF1: stabilized the melting temperature of HSF1
[6]
  effect on melting of unrelated protein Hsc70: did not affect the melting

## O=C(Nc1ccc(Cl)cc1)Nc1csc([N+](=O)[O-])c1 [Compound 0009]
[4]
  ΔTm at 25 µM: 4.1 °C
  effect on melting temperature of HSF1: stabilized the melting temperature of HSF1
[6]
  effect on melting of unrelated protein Hsc70: did not affect the melting

## N#Cc1ccc(NC(=O)Nc2ccc3c(c2)S(=O)(=O)C=C3)cc1 [Compound 244, 1-(4-cyanophenyl)-3-(1,1-dioxidobenzo[b]thiophen-6-yl)urea]
[1]
  ΔTm at 12.5 µM: 2.11 °C
[2]
  pIC50: 5.66
[3]
  half-life at 1 μM: 2.58 h
